System: CA3 layer of the hippocampus in rats 24 hrs following TBI
Experiment: Hippocampal damage after TBI (lateral fluid percussion injury), Fluoro-Jade staining of degenerating neurons
Type: in vivo, Male Sprague-Dawley rats
Details: vs vehicle (2.5% DMSO in saline), p<0.0293 ANOVA with Dunnett's post-hoc test
Experimental: FIG. 1 illustrates that Carvedilol treatment reduces hippocampal damage following TBI. Representative images of the CA3 layer of the hippocampus in rats 24 hrs following TBI, vehicle treated (A) and carvedilol treated (B) at 1 and 12 hrs following the insult. […] Images were taken at 4× magnification. Dosing was subcutaneous and the vehicle is 2.5% DMSO in saline.
All animal procedures were conducted in accordance with the NIH Guide for the Care and Use of Laboratory Animals following a protocol approved by the Institutional Animal Care and Use Committee at the University of South Florida. Male Sprague-Dawley rats (Harlan, Indianapolis, Ind.) weighing 250 to 300 g were housed in a climate-controlled room with water and laboratory chow available ad libitum. A total of 33 animals were used in this study.
Induction of Lateral Fluid Percussion Injury (LFPI) Animals were anesthetized using a mixture of ketamine (90 mg/kg)/xylazine (10 mg/kg) (IP). […] Impact pressures were measured using a transducer attached to the point of impact on the fluid percussive device. […]
All quantitation was performed using the NIH Image J software. […] Photomicrographs captured at 200× magnification with an Olympus DP70 camera were used for quantification. […] The channels of the RGB images were split and the green channel was used for quantitation of the FJ staining images. […]

COc1ccccc1OCCNCC(O)COc1cccc2[nH]c3ccccc3c12 (racemic) [Carvedilol, (±)-[3-(9H-carbazol-4-yloxy)-2-hydroxypropyl][2-(2-methoxyphenoxy)ethyl]amine]
hippocampal damage following TBI (subcutaneous dosing at 1 and 12 hrs following the insult): significantly reduces hippocampal damage
hippocampal damage following TBI (subcutaneous dosing at 6 and 12 (hrs) following the insult): significantly reduces hippocampal damage
